Results: patent US12459921B2, “Isoindoline compound, preparation method, pharmaceutical composition and use thereof” (SHANGHAI INSTITUTE OF MATERIA MEDICA, CHINESE ACADEMY OF …, priority 2018, dated 2025)

system: MM.1S cells; test: Inhibitory effect on the proliferation of MM.1S, MTS cell viability test; format: cell-based; conditions: Homo sapiens, MM1.S, 168 h, multiple myeloma MM.1S cells, 7 days incubation, read-out: Tumor cell inhibitory activity
Summary of the method: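 MM.1S cells (20,000/well, RPMI 1640 with 10% FBS) exposed to 5-fold compound dilutions at 0.2% DMSO for 7 days at 37° C, 5% CO2. MTS added for 3-4 h; OD490-OD690 gave inhibition versus DMSO, IC50 fitted, mean of three experiments.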

`COc1cccc(C2(C#N)CCN(CCCCCc3cccc4c3CN(C3CCC(=O)NC3=O)C4=O)CC2)c1OC` (centres unmarked) [Example 260, 4-(2,3-dimethoxyphenyl)-1-(5-(2-(2,6-dioxopiperidin-3-yl)-1-oxoisoindoline-4-yl)pentyl)piperidine-4-carbonitrile] and `COc1ccc(C2(C#N)CCN(CCCCCc3cccc4c3CN(C3CCC(=O)NC3=O)C4=O)CC2)c(Cl)c1` (centres unmarked) [Example 267, 4-(2-chloro-4-methoxyphenyl)-1-(5-(2-(2,6-dioxopiperidin-3-yl)-1-oxoisoindoline-4-yl)pentyl)piperidine-4-carbonitrile] fall in the same range of IC50: 100 to 1000 nM for the first, 100 to 1000 nM for the second.

`Cc1cc(C)c(C2(C#N)CCN(CCCCc3cccc4c3CN(C3CCC(=O)NC3=O)C4=O)CC2)c(C)c1` (centres unmarked) [Example 261, 1-(4-(2-(2,6-dioxopiperidin-3-yl)-1-oxoisoindolin-4-yl)butyl)-4-sym-trimethylphenylpiperidine-4-carbonitrile] and `Cc1cc(C)c(C2(C#N)CCN(CCCCCc3cccc4c3CN(C3CCC(=O)NC3=O)C4=O)CC2)c(C)c1` (centres unmarked) [Example 262, 1-(5-(2-(2,6-dioxopiperidin-3-yl)-1-oxoisoindolin-4-yl)pentyl)-4-sym-trimethylphenylpiperidine-4-carbonitrile] fall in the same range of IC50: 1000 to 20000 nM for the first, 1000 to 20000 nM for the second.

First: COCCOc1ccc(C2(C#N)CCN(CCCCCc3cccc4c3CN(C3CCC(=O)NC3=O)C4=O)CC2)cc1 (centres unmarked) [Example 264, 1-(5-(2-(2,6-dioxopiperidin-3-yl)-1-oxoisoindolin-4-yl)pentyl)-4-(4-(2-methoxyethoxy)phenyl)piperidine-4-carbonitrile]
Second: COc1ccc(C2(C#N)CCN(CCCCCc3cccc4c3CN(C3CCC(=O)NC3=O)C4=O)CC2)cc1 (centres unmarked) [Example 265, 1-(5-(2-(2,6-dioxopiperidin-3-yl)-1-oxoisoindolin-4-yl)pentyl)-4-(4-methoxyphenyl)piperidine-4-carbonitrile]
The IC50 of the first is lower: 100 to 1000 nM for the first, 1000 to 20000 nM for the second. The first is the more potent here.

`N#CC1(c2c(Cl)cccc2Cl)CCN(CCCCc2cccc3c2CN(C2CCC(=O)NC2=O)C3=O)CC1` (centres unmarked) [Example 266, 4-(2,6-dichlorophenyl)-1-(4-(2-(2,6-dioxopiperidin-3-yl)-1-oxoisoindoline-4-yl)butyl)piperidine-4-carbonitrile] and `N#CC1(c2ccc(Cl)c(Cl)c2)CCN(CCCCc2cccc3c2CN(C2CCC(=O)NC2=O)C3=O)CC1` (centres unmarked) [Example 272, 4-(3,4-dichlorophenyl)-1-(4-(2-(2,6-dioxopiperidin-3-yl)-1-oxoisoindoline-4-yl)butyl)piperidine-4-carbonitrile] fall in the same range of IC50: 100 to 1000 nM for the first, 100 to 1000 nM for the second.

First: N#Cc1ccc(C2(C#N)CCN(CCCCCc3cccc4c3CN(C3CCC(=O)NC3=O)C4=O)CC2)cc1 (centres unmarked) [Example 268, 4-(4-cyanophenyl)-1-(5-(2-(2,6-dioxopiperidin-3-yl)-1-oxoisoindoline-4-yl)pentyl)piperidine-4-carbonitrile]
Second: N#CC1(c2ccc(C(F)(F)F)cc2)CCN(CCCCCc2cccc3c2CN(C2CCC(=O)NC2=O)C3=O)CC1 (centres unmarked) [Example 271, 1-(5-(2-(2,6-dioxopiperidin-3-yl)-1-oxoisoindolin-4-yl)pentyl)-4-(4-(trifluoromethyl)phenyl)piperidine-4-carbonitrile]
The IC50 of the first is lower: 100 to 1000 nM for the first, 1000 to 20000 nM for the second.

`N#CC1(c2cc(Cl)ccc2Cl)CCN(CCCCc2cccc3c2CN(C2CCC(=O)NC2=O)C3=O)CC1` (centres unmarked) [Example 269, 4-(2,5-dichlorophenyl)-1-(4-(2-(2,6-dioxopiperidin-3-yl)-1-oxoisoindoline-4-yl)butyl)piperidine-4-carbonitrile] and `O=C1CCC(N2Cc3c(CCCCCN4CCC5(CC4)OCc4cc(Cl)ccc45)cccc3C2=O)C(=O)N1` (centres unmarked) [Example 274, 3-(4-(5-(5-chloro-3H-spiro[isobenzofuran-1,4′-piperidin]-1-yl)pentyl)-1-oxoisoindoline-2-yl)piperidine-2,6-dione] fall in the same range of IC50: 100 to 1000 nM for the first, 100 to 1000 nM for the second.

`N#CC1(c2ccc(OC3COC3)cc2)CCN(CCCCCc2cccc3c2CN(C2CCC(=O)NC2=O)C3=O)CC1` (centres unmarked) [Example 270, 1-(5-(2-(2,6-dioxopiperidin-3-yl)-1-oxoisoindolin-4-yl)pentyl)-4-(4-(oxetan-3-yloxy)phenyl)piperidine-4-carbonitrile] and `O=C1CCC(N2Cc3c(CCCCCN4CCC5(CC4)OCc4cc(F)ccc45)cccc3C2=O)C(=O)N1` (centres unmarked) [Example 273, 3-(4-(5-(5-fluoro-3H-spiro[isobenzofuran-1,4′-piperidine]-1′-)pentyl)-1-oxoisoindoline-2-yl)piperidine-2,6-dione] fall in the same range of IC50: 100 to 1000 nM for the first, 100 to 1000 nM for the second.

`O=C1CCC(N2Cc3c(CCCCCN4CCC5(CC4)C(=O)Nc4cccc(Cl)c45)cccc3C2=O)C(=O)N1` (centres unmarked) [Example 276, 3-(4-(5-(4-chloro-2-oxospiro[dihydroindole-3,4-piperidin]-1-yl)pentyl)-1-oxoisoindoline-2-yl)piperidine-2,6-dione] and `O=C1CCC(N2Cc3c(CCCCCN4CCC5(CC4)C(=O)Nc4c(Cl)cccc45)cccc3C2=O)C(=O)N1` (centres unmarked) [Example 279, 3-(4-(5-(7-chloro-2-oxospiro[dihydroindole-3,4-piperidin]-1-yl)pentyl)-1-oxoisoindoline-2-yl)piperidine-2,6-dione] fall in the same range of IC50: 100 to 1000 nM for the first, 100 to 1000 nM for the second.

`O=C1CCC(N2Cc3c(CCCCCN4CCC5(CC4)OC(=O)Nc4ccc(Cl)cc45)cccc3C2=O)C(=O)N1` (centres unmarked) [Example 277, 3-(4-(5-(6-chloro-2-oxo-1,2-dihydrospiro[benzo[1,3]oxazine-4,4′-piperidine]-1′-yl)pentyl)-1-oxoisoindolin-2-yl)piperidine-2,6-dione] and `O=C1CCC(N2Cc3c(CCCCCN4CCC5(CC4)C(=O)Nc4ccc(F)cc45)cccc3C2=O)C(=O)N1` (centres unmarked) [Example 278] fall in the same range of IC50: 100 to 1000 nM for the first, 100 to 1000 nM for the second.

`O=C1CCC(N2Cc3c(CCCCCN4CCC5(CC4)OCc4c(Cl)cccc45)cccc3C2=O)C(=O)N1` (centres unmarked) [Example 280, 3-(4-(5-(4-chloro-3H-spiro[isobenzofuran-1,4′-piperidin]-1-yl)pentyl)-1-oxoisoindoline-2-yl)piperidine-2,6-dione] showed an IC50 of 100 to 1000 nM.

same assay, conditions: multiple myeloma MM.1S cells, 7 days incubation, read-out: Tumor cell inhibitory activity

With `N#CC1(c2ccc(O[C@H]3CCOC3)cc2)CCN(CCCCCc2cccc3c2CN(C2CCC(=O)NC2=O)C3=O)CC1` (stereo partly drawn) [Example 263, 1-(5-(2-(2,6-dioxopiperidin-3-yl)-1-oxoisoindolin-4-yl)pentyl)-4-(4-(((S)-tetrahydrofuran-3-yl)oxy)phenyl)piperidine-4-carbonitrile] the IC50 was 100 to 1000 nM.
